Read-outs that look alike come from different tables or passages of the source. No end group written: not given here.
Target: T1, enzyme (from seminal vesicles of sheep) (Ovis aries, UniProt P05979)
T1 sequence (P05979 25-600): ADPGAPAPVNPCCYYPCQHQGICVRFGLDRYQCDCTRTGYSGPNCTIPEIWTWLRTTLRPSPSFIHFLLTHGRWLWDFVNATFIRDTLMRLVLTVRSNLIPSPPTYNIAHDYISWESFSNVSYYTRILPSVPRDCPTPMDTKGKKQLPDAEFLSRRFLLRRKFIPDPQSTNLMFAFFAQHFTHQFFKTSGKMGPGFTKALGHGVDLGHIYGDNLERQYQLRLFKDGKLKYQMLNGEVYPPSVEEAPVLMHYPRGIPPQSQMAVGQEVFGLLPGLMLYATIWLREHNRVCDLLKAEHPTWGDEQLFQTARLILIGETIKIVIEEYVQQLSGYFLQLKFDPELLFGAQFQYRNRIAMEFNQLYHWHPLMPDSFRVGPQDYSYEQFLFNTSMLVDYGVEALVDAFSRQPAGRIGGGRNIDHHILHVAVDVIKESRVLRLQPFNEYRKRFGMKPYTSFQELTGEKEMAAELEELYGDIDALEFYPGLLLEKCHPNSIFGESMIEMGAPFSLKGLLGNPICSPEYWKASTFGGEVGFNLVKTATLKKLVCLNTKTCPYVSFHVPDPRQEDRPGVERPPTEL
Details: for stimulation of prostaglandin synthesis with much smaller quantities of undesired byproducts: mixtures with polyunsaturated fatty acids such as arachidonic acid
Method: Method 2: Prostaglandin Synthesis
0.3 ml of 0.03M potassium phosphate buffer of pH=8.0 contains 0.5 mg of enzyme (from seminal vesicles of sheep) (Biochemistry 10 (1971) 2372) or homogenate of the inner kidney medulla (Life Sciences 26 (1980) 765), 2.75 μg of ^14 C-arachidonic acid (0.5 μCi) and 0.5 mg of stimulator, and, if appropriate, 0.5 mg of stabilizer substance (see Table 1). After 10 minutes' incubation at 37° C., the reaction is stopped with 0.05 ml of 1.2M citric acid and the mixture is extracted with twice 0.5 ml of ethyl acetate, the combined extracts are freed of solvent, and the residue is dissolved in 0.2 ml of methanol, diluted 1:1 with water and separated by HPLC (nucleosil C-18 column, 125×4.6 mm, from Bischoff, Leonberg, Germany, solvent 300 ml of acetonitrile, 700 ml of water and 1 ml of glacial acetic acid and after 30 minutes pure methanol). The separation of the radioactive fractions is followed by a monitor (LB 504 from Berthold, Wildbad, Germany). The products formed, such as 6-keto-prostaglandin F2alpha, prostaglandin E2, prostaglandin F2alpha and prostaglandin D2, are separated under these conditions.
The prostaglandins PGE2, PGF2 alpha and PGD2 as products from arachidonic acid where quantified by means of method 2, and the sum was related as "total prostaglandin" to 100%. The quantity of "total prostaglandin" formed without the addition of a stimulator was set at f=1; the quantity formed after stimulation was related thereto. f=2 or f=3 therefore means twice or three times the stimulation under the conditions of method 2. The stability of the sample was investigated by means of method 1 (right-hand column). […] Values greater than 25-28% therefore represent a stabilization, and values smaller than 25-28% represent a destabilization. Example No. 1 was carried out without a stimulator. […] The substances test with respect to stabilization (see Method 1 for quantities) were: A) aqueous solution without stabilizer addition, B) ethanolic solution without further addition, C) pyridine solution, D) with rutin, predissolved in dimethyl sulfoxide, dimethyl sulfoxide then stripped off, E) like B) with lecithin, ethanol stripped off, F) like A) with cytochrome c from horse heart (from Boehringer, Mannheim, Germany), G) like A) with methemoglobin (human) (from Sigman, Munich, Germany), H) like A) with bovine serum albumin (from Calbiochem, Frankfurt, Germany), J) like A) or B), but solvent stripped off, K) like J) with cytochrome c, L) like J) with hemoglobin (human) (from Behringwerke, Marburg, Germany), and M) like J) with human serum albumin (from Behringwerke, Marburg, Germany).

[1] = seminal vesicle enzyme, 10 min, pH 8
[2] = Table 1, share of total prostaglandin (=100%)
[3] = Table 2, share of total prostaglandin
[4] = Table 1, 0.5 mg stimulator, 10 min 37° C., without stimulator f=1

Row | Compound | relative total prostaglandin f [1] | PGD2 % [2] | PGE2 % [2] | PGF2alpha % [2] | further results
1 | O=C(O)CCCC[C@@H](S)CCS (racemic) [Example 42, Dihydrolipoic acid, reference compound] | 1.0 | – | – | – | stimulation of prostaglandin synthesis with much smaller quantities of undesired byproducts (result in words): not possible to achieve these advantageous effects
2 | Cc1cccc(O)c1 [Example 2, m-cresol, reference compound] | – | 2% | 98% | 0% | –
3 | Oc1ccccc1 [Example 3, phenol, reference compound] | – | 18% | 77% | 5% | –
4 | N[C@@H](Cc1ccccc1)C(=O)O [Example 4, L-phenylalanine, reference compound] | – | 18% | 80% | 2% | –
5 | NCCc1ccc(O)cc1 [Example 7] | 4,0 | 17% | 80% | 3% | –
6 | O=C(O)CCc1ccc(O)cc1 [Example 8] | – | 16% | 83% | 1% | –
7 | NC(Cc1ccc(O)c(O)c1)C(=O)O (stereo not shown) [Example 9] | 9.4 | 16% | 70% | 14% | –
8 | NCC(O)c1ccc(O)c(O)c1 (stereo not shown) [Example 12] | 8.3 | 17% | 66% | 17% | –
9 | CNCC(O)c1ccc(O)c(O)c1 (stereo not shown) [Example 13] | – | 18% | 70% | 12% | –
10 | Oc1ccc(O)cc1 [Example 14] | – | 19% | 69% | 12% | –
11 | COc1cc(C(=O)O)ccc1O [Example 15] | – | 17% | 71% | 12% | –
12 | O=C(O)c1ccc(O)cc1 [Example 16] | – | 18% | 69% | 13% | –
13 | NC(Cc1c[nH]c2ccccc12)C(=O)O (stereo not shown) [Example 18] | 9.8 | 21% | 76% | 3% | –
14 | NC(Cc1c[nH]c2ccc(O)cc12)C(=O)O (stereo not shown) [Example 19] | 10.1 | 18% | 79% | 3% | –
15 | O=C(O)CCc1c[nH]c2ccccc12 [Example 20] | – | 16% | 82% | 2% | –
16 | N[C@H](CS)C(=O)O [Example 34, D-cysteine] | – | 23% | 63% | 14% | –
17 | CC(=O)NC(CS)C(=O)O (stereo not shown) [Example 37, NAcetylcysteine] | – | 25% | 61% | 14% | –
18 | O[C@H](CS)[C@H](O)CS [Example 39, Dithiothreitol, reference compound] | 0.8 | – | – | – | stimulation of prostaglandin synthesis with much smaller quantities of undesired byproducts (result in words): not possible to achieve these advantageous effects
19 | O[C@H](CS)[C@@H](O)CS [Example 40, Dithioerythritol, reference compound] | 0.85 | – | – | – | stimulation of prostaglandin synthesis with much smaller quantities of undesired byproducts (result in words): not possible to achieve these advantageous effects
20 | N[C@@H](CSSC[C@H](N)C(=O)O)C(=O)O [Example 41, Cystine, reference compound] | 1.0 | 15% | 85% | 0% | stimulation of prostaglandin synthesis with much smaller quantities of undesired byproducts (result in words): not possible to achieve these advantageous effects

Row | Compound | relative total prostaglandin f [1] | PGD2 % [2] | PGE2 % [2] | PGF2alpha % [2] | further results
21 | NCCS [Example 43, Cysteamine, reference compound] | 0.9 | – | – | – | stimulation of prostaglandin synthesis with much smaller quantities of undesired byproducts (result in words): not possible to achieve these advantageous effects
22 | CC(C)(COP(=O)(O)OP(=O)(O)OC[C@H]1O[C@@H](n2cnc3c(N)ncnc32)[C@H](O)[C@@H]1OP(=O)(O)O)[C@@H](O)C(=O)NCCC(=O)NCCS [Example 45, Coenzyme A, reference compound] | 1.0 | – | – | – | stimulation of prostaglandin synthesis with much smaller quantities of undesired byproducts (result in words): not possible to achieve these advantageous effects
23 | CC(C)(CO)[C@@H](O)C(=O)NCCC(=O)NCCS [Example 46, Pantetheine, reference compound] | 0.95 | – | – | – | stimulation of prostaglandin synthesis with much smaller quantities of undesired byproducts (result in words): not possible to achieve these advantageous effects
24 | CC1=C(C)C(=O)C(CC[C@](C)(O)CCC[C@H](C)CCC[C@H](C)CCCC(C)C)=C(C)C1=O [Example 51, D-alpha-Tocopheryl-quinone] | – | – | – | – | PGD2 % [3]: 15%; PGE2 % [3]: 80%; PGF2alpha % [3]: 5%
25 | C[C@@H]1O[C@@H](OC[C@H]2O[C@@H](Oc3c(-c4ccc(O)c(O)c4)oc4cc(O)cc(O)c4c3=O)[C@H](O)[C@@H](O)[C@@H]2O)[C@H](O)[C@H](O)[C@H]1O [Example 52, Rutin] | 6 | – | – | – | PGD2 % [3]: 18%; PGE2 % [3]: 76%; PGF2alpha % [3]: 6%
26 | O=c1c(O)c(-c2ccc(O)c(O)c2)oc2cc(O)cc(O)c12 [Example 57, Quercetin] | 0.3 | – | – | – | PGD2 % [3]: 10%; PGE2 % [3]: 72%; PGF2alpha % [3]: 18%
27 | Oc1cc(O)c2c(c1)OC(c1ccc(O)c(O)c1)C(O)C2 (stereo not shown) [Example 58, Catechin] | – | – | – | – | PGD2 % [3]: 12%; PGE2 % [3]: 70%; PGF2alpha % [3]: 18%
28 | O=C(CCc1ccc(O)cc1)c1c(O)cc(O)cc1O [Example 60, Phloretin] | – | – | – | – | PGD2 % [3]: 13%; PGE2 % [3]: 76%; PGF2alpha % [3]: 11%
29 | O=c1c(O)c(-c2ccc(O)cc2O)oc2cc(O)cc(O)c12 [Example 61, Morin] | – | – | – | – | PGD2 % [3]: 19%; PGE2 % [3]: 54%; PGF2alpha % [3]: 27%
30 | N[C@@H](CS)C(=O)O [cysteine] | – | – | – | – | stimulation of prostaglandin synthesis with much smaller quantities of undesired byproducts (result in words): stimulated
31 | N[C@@H](CCS)C(=O)O [homocysteine] | – | – | – | – | stimulation of prostaglandin synthesis with much smaller quantities of undesired byproducts (result in words): stimulated
32 | GlyTrpGly [Example 25] | – | 20% | 79% | 1% | relative total prostaglandin f [4]: 13.0
33 | LeuTrp [Example 27] | – | 22% | 77% | 1% | relative total prostaglandin f [4]: 17.0
34 | LeuTrpMet [Example 29] | – | 22% | 69% | 9% | relative total prostaglandin f [4]: 10.8
35 | TrpAla [Example 26] | – | 22% | 77% | 1% | relative total prostaglandin f [4]: 12.6
36 | TrpTrp [Example 24] | – | 23% | 75% | 2% | relative total prostaglandin f [4]: 11.7
37 | TyrTrp [Example 31] | – | 14% | 73% | 3% | relative total prostaglandin f [4]: 6.3
38 | TyrTyrTyrOCH3 [Example 30] | – | 11% | 75% | 4% | relative total prostaglandin f [4]: 5.3
39 | YCEHFRWG [Example 38] | – | – | – | – | Stimulation (Table 1, result in words): positive

Source: patent publication US5043328A, “Formulations containing unsaturated fatty acids for the synthesis of prostaglandins and hydroxy-fatty acids in biological systems” (priority 1986, dated 1991)
